Results on two compounds are retold here after US11878075B2, “Sustained release formulations of dysoxylum binefacterum” (COUNCIL OF SCIENTIFIC AND INDUSTRIAL RESEARCH, priority 2018, dated 2024).

Data set [1] can be described thus: pH dependent stability of rohitukine. The data set is classed as physicochemical. The conditions noted are these: pH 1.2 buffer, pH 4.0 buffer, phosphate buffer pH 6.8, PBS pH 7.4, SGF (pH 1.2), SIF (pH 6.8) and plasma up to 24 hrs. As for the experimental part:
The stability of rohitukine was performed in pH 1.2 buffer, pH 4.0 buffer, phosphate buffer pH 6.8, phosphate buffered saline pH 7.4, SGF (pH 1.2), SIF (pH 6.8) and plasma up to 24 hrs. The % of rohitukine hydrolyzed was determined by HPLC analysis. The HPLC analysis was carried out using the method as described in example 1.

For data set [2] the following is noted: rats, oral and intravenous administration; cited from earlier work.
Data set [3] concerns TNF-alpha production in THP-1 cells. Nature of the data set: In-vitro cytokine inhibition in LPS-stimulated THP-1 cells (TNF-α ELISA). The data set is classed as cell-based, human. The conditions noted are these: THP-1 cells, 1.56, 3.12, and 6.25 μg/mL. As for the experimental part: For the in vitro analysis of pro-inflammatory cytokine (TNF-α), human leukemia THP-1 cells were seeded in a 24-well plate at a density of 4×10^5 cells/ml of RPMI medium per well. THP-1 cells were then treated with PMA (20 ng/ml) for differentiation into macrophages for 18 h followed by a rest period of 48 h. Cells were further co-treated with test samples and 1 μg/ml of lipopolysaccharide (LPS) in a serum-free medium. Culture supernatant was harvested after 24 h for analysis of TNF-α by using OptEIA ELISA Kits from BD Biosciences. Total protein content for all the samples was calculated by using Bradford reagent from Bio-Rad Laboratories. All samples were normalized by dividing cytokine concentration with total quantity of protein. Betamethasone was used as positive control in this study.
(In general: ELISA stands for enzyme-linked immunosorbent assay.)

Another data set has as its system IL-6. Nature of the data set: Collagen induced arthritis model, serum IL-6. The data set is classed as in vivo, DBA/1J mice. The conditions noted are these: oral administration in arthritic mice, day 34 to day 48. As for the experimental part: (§1) Six weeks old DBA/1J mice (procured from Jackson Laboratories, USA) were used in this study. On the day of the immunization (day 1), required amount of Chicken collagen II (CII), 2 mg/ml (Chondrex Inc, USA) stock solution was thawed at 4° C. into a small (20 ml) glass bottle. Equal volume of CII solution was added to the complete Freund's adjuvant (CFA), 1 mg/ml, (Sigma aldrich, USA) in 1:1 ratio and homogenized at 4° C. to produce a homogenous, stiff, white creamy emulsion for immunization. Mice were weighed and anesthetized with isoflurane. 150 μl of CII/CFA (1:1) emulsion was injected intradermally at two different sites into the mice lower back (previously shaven) on day 1. Mice were given the booster on day-21 in a similar manner as day 1 except that CII was emulsified in incomplete Freund's adjuvant. Mice were given booster of LPS from E. coli (50 μg/mouse; Sigma Aldrich, USA) on day 28. Dosing of the test samples in DBA/1J mouse CIA model was initiated after development of clinical symptoms. Animals were randomized into different treatment groups based on clinical scores on day 33. Treatment continued from day 34 to day 48. Serum IL-6, TNF-α estimation was done using ELISA kit from R & D Systems, USA. All values are expressed as Mean±SEM. * p<0.05 as compared to vehicle treatment, one way ANOVA followed by Dunnett's multiple comparison test.

The test system of data set [4] is TNF-α. Nature of the data set: LPS induced septic shock model, serum TNF-α ELISA. The data set is classed as in vivo, BALB/C mice. The conditions noted are these: 20 mg/kg (PO). As for the experimental part:
The effect of rohitukine, hydroalcoholic extract (A002-A) and rohitukine-enriched fraction (A002-AEF) on TNF-α secretion was studied in LPS induced septic shock model in BALB/C mice. BALB/C female mice (20-25 g) were randomly divided into 6 groups (n=4 per group). Animals were treated according to the following pattern: group 1 (vehicle), group 2 (LPS, 20 mg/kg), group 3 (Rohitukine, 20 mg/kg), group 4 (A002-A, 200 mg/kg), group 5 (A002-AEF, 200 mg/kg), group 6 (dexamethasone, 10 mg/kg). The hydroalcholic extract (A002-A) and its enriched fraction A002-AEF was dissolved in water and dexamethasone was dissolved in PBS. PBS/water was used as a vehicle control. Compounds and vehicle were administered perorally for 1 h prior to treatment with LPS. LPS was injected through intraperitoneal route for 5 h. Blood was collected and serum was extracted for performing ELISA analysis of TNF-α cytokine. The ELISA was performed according to manufacturer's instructions (BD Bioscience). The absorbance was measured at 450 nm and each estimated cytokine value was normalized with total serum protein.

The subject of data set [5] is TNF-α. Nature of the data set: Collagen induced arthritis model, serum TNF-α. The data set is classed as in vivo, DBA/1J mice. As for the experimental part: as §1
A further data set can be described thus: in vivo. The conditions noted are these: male, SD, rat. As for the experimental part:
The pharmacokinetic study was performed in male SD rats. First the pharmacokinetic study of “rohitukine” was performed by both intravenous as well as per oral (PO) routes in order to understand the oral exposure and oral bioavailability of rohitukine. Rohitukine was administered at 5 mg/kg by IV route and at 50 mg/kg by oral route. For comparative oral pharmacokinetic study of plain extract (A002-AEF) and SR formulation “SR-A002-AEF” formulation (filled in 9e1 capsules), the dose equivalent to 6.77 mg/kg dose of rohitukine was administered in SD rats in both these groups. Blood samples were collected (n=3/time point) at 0.083 (IV only), 0.25, 0.5, 1, 2, 4, 8 and 24 h, post-dose. At each time point about 200 μL of blood was collected by jugular vein into a labeled microfuge tube containing 200 mM K2EDTA solution (20 μL per mL of blood) and equivalent volume of heparinized saline was replaced following sample collection. The blood samples were processed to obtain the plasma samples within 30 min of scheduled sampling time. All plasma samples were stored below −60° C. until bioanalysis. The plasma samples were analyzed for rohitukine content using a fit-for purpose LC-MS/MS method with a lower limit of quantification (LLOQ) of 9.95 ng/mL. The pharmacokinetic parameters of rohitukine were calculated using the non-compartmental analysis tool of validated Phoenix® WinNonlin® software (version 6.3).

Each structure is given as a SMILES string.

Regarding `Cc1cc(=O)c2c(O)cc(O)c([C@H]3CCN(C)C[C@H]3O)c2o1` [rohitukine], the “stability of rohitukine (% hydrolyzed by HPLC)” value in data set [1] was “stable at all the conditions tested”. The biological half-life in data set [2] is reported as 1-2 h. Also, the “inhibition of LPS-stimulated TNF-alpha levels” value in data set [3] is “significant inhibition of TNF-alpha”. Further, the “serum IL-6 cytokine levels” value with IL-6 is “decreased levels of serum IL-6 cytokine”. In addition, the “serum TNF-alpha levels” value in the data set with TNF-α [4] was “not able to significantly inhibit the serum TNF-alpha levels”. Also, in the data set on TNF-α [5] (5-15 mg/kg (PO) doses), the “serum TNF-alpha” value is “could not inhibit serum TNF-alpha”. The “serum TNF-alpha cytokine” value in the data set on TNF-α [5] (5-30 mg/kg doses) is listed as “no significant inhibition of TNF-alpha cytokine”. Besides, the bioavailability (as a rule, the share of a dose that reaches the circulation, judged against a reference dose that is usually intravenous) in the data set “in vivo” is > 100%. For the same compound, in the data set “in vivo” (iv, 5 mg/kg), the exposure AUC(0-t) – broadly, exposure summed from dosing to a finite time, without extrapolation to infinity – amounted to 1130 ng·h/mL; the clearance (as a rule, the rate of elimination divided by the concentration) stood at 72.7 mL/min/kg; the “clearance relative to normal hepatic blood flow (55 mL/min/kg)” value is ~1.32 fold; the half-life – broadly, how long it takes for the measured level to halve – was 22.9 min. In “in vivo” (iv, 5 mg/kg), the “volume of distribution relative to normal total body water (0.7 L/kg)” value is listed as ~2.41 fold. In addition, in “in vivo” (po, 50 mg/kg), the AUC(0-t) is 26400 ng·h/mL, the peak level (Cmax) was 14900 ng/mL, the half-life was 63.6 min and the “median time to reach the maximum plasma concentration” value was found to be 0.25 h.

For the compound `Cc1cc(=O)c2c(O[C@@H]3OC(CO)[C@@H](O)[C@H](O)C3O)cc(O)cc2o1` (stereo partly drawn) [schumaniofioside A], the “inhibition of LPS-stimulated TNF-alpha levels” value in data set [3] is “significant inhibition of TNF-alpha”.
